Structures can show the parent of a compound that is named as a salt.
Each compound was assayed against T1, Amyloid-beta(1-42) oligomer binding to purified human brain membranes (Homo sapiens, UniProt P05067) (assay: Inhibition of Amyloid-beta(1-42) oligomer binding to purified human brain cell membranes (ELISA)). Details: Abeta(1-42) oligomers, read-out: Abeta42/Membrane Activity (IC-50).
T1 construct: Beta-amyloid (1-42) was purchased from rPeptide (Cat. No. A1163); purchased rPeptide A1163
T1 sequence (P05067 672-713): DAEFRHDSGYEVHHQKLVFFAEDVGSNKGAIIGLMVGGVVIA
Protocol: Purified human brain cell membranes were prepared by differential centrifugation as follows. Five grams of frozen human brain postmortem tissue (obtained from University of Kentucky Alzheimer's Disease Center Tissue Bank) was homogenized in 50 ml HEPES-Buffered sucrose (0.32M sucrose, 4 mM HEPES pH7.4, protease inhibitors) with a motor driven glass-teflon homogenizer. After removing nuclear and cell debris by centrifugation of homogenates at 1,000×g for 10 min at 4 degree Celsius, post-nuclear supernatant was centrifuged at 100,000×g for 30 minutes to yield the crude membrane pellet. Crude membrane pellet was re-suspended in 0.32M sucrose, then centrifuged again at 100,000×g for 30 minutes to yield washed membrane pellet. Membrane pellet was resuspended in sterile PBS (pH7.4), quickly frozen, and kept in aliquots at −80 degrees Celsius. This preparation contains human brain cell membranes. Protein concentration was measured with BCA protein assay kit (Pierce Cat. No. 23227). Purified brain membranes were diluted to 0.01 mg/ml in PBS (pH 7.4) and then added to a 96 well polystyrene ELISA plate (NUNC Cat. No. 449824; 100 μl per well). Plates were incubated Over Night (ON) at 4 degrees Celsius. Following the incubation, the plate was washed consecutively, by immersion, with de-ionized water and PBS (pH 7.4). The ELISA plate was then blocked with nonfat milk (2%, 200 μl per well) for 2 hours at Room Temperature (RT). Following blocking, the plate was washed with de-ionized water then PBS (pH 7.4). GBAPs were dissolved and diluted in PBS (pH 6.5, supplemented with 0.1% BSA) at desired concentrations, added to the ELISA plates coated with brain membranes (100 μl per well) and incubated for 2 hours at RT with gentle shaking. Following incubation, the plate was washed with de-ionized water and three times with PBS (pH 6.5) plus Tween. Bound GBAP was detected by a monoclonal antibody specific for that GBAP, followed by incubation with secondary antibody conjugated to horseradish peroxidase (HRP). Antibody was diluted in PBS (pH6.5 supplemented with 1% BSA). Following each incubation with antibody, the plate was washed with de-ionized water and three times with PBS (pH6.5) wash buffer containing 0.1% Tween. The peroxidase substrate chromogen, TMB (Dako Cat. No. S1599) was added (100 μl per well) to the ELISA plate and incubated at room temperature. After 5 minutes ELISA Stop Solution (hydrochloric acid 1N, sulfuric acid 3N) was added (100 μl per well) to stop the peroxidase catalyzed colorimetric reaction. The Optical Density of the samples was measured at 450 nm using an ELISA plate reader (BioTek Synergy H1). Following color development, the % inhibition compared to control was determined. IC-50s were calculated using GraphPad Prism software.
The assay was performed as described in Example 49, with the following modifications. Following to coating the plates with purified human brain cell membranes, plates were washed as described. The compounds were dissolved in DMSO at 10 mM final concentration and further diluted prior to assay. DMSO concentration in the screening well was up to 2%. Individual compounds were co-incubated with Beta-amyloid peptides on plates coated with purified human brain membranes. Beta-amyloid (1-42) oligomers were prepared as described in Example 2. Beta-amyloid (1-40) from rPeptide (Cat No. A1153) was dissolved in DMSO, quickly frozen and kept in aliquots at −80 degrees Celsius. Beta-amyloid (1-42) oligomers or Beta-amyloid (1-40) dissolved in PBS (pH 6.5, supplemented with BSA, 0.1%) were added to the ELISA plate (100 μl per well) and incubated for 2 hours at RT with gentle shaking. Following the incubation, the plate was washed with de-ionized water and three times with PBS (pH 6.5) plus Tween. […]
`CC(=NNc1ccnc2cc(Cl)ccc12)c1ccc(-n2ccnc2)cc1` [Compound 36, 4-(2-(1-(4-(1H-imidazol-1-yl)phenyl)ethylidene)hydrazineyl)-7-chloroquinoline phosphate] was tested, and the IC50 was 18.7 µM.
With `Cc1ncn(-c2ccc(Nc3ncnc4cc(Cl)ccc34)cn2)c1C` [Compound 25, 7-chloro-N-(6-(4,5-dimethyl-1H-imidazol-1-yl)pyridin-3-yl)quinazolin-4-amine] the IC50 was 7.01 µM.
With `Cc1ncn(-c2ncc(Nc3ncnc4cc(Cl)ccc34)cc2O)c1C` [Compound 40, 5-((7-chloroquinazolin-4-yl)amino)-2-(4,5-dimethyl-1H-imidazol-1-yl)pyridin-3-ol phosphoric acid salt] the IC50 was 4.36 µM.
With `C/C(=N\Nc1nncc2cc(Cl)ccc12)c1ccc(-n2cc(C)nc2C)nc1` [Compound 24, (E)-6-chloro-1-(2-(1-(6-(2,4-dimethyl-1H-imidazol-1-yl)pyridin-3-yl)ethylidene)hydrazineyl)phthalazine] the IC50 was 6.67 µM.
`C/C(=N\Nc1ncnc2cc(F)ccc12)c1ccc(-n2cnc(C)c2C)nc1` [Compound 21, (E)-4-(2-(1-(6-(4,5-dimethyl-1H-imidazol-1-yl)pyridin-3-yl)ethylidene)hydrazineyl)-7-fluoroquinazoline] showed an IC50 of 3.3 µM.
`Cc1ncn(-c2ccc(/C=N\Nc3ncnc4cc(Cl)ccc34)cn2)c1C` [Compound 15, 7-chloro-4-(2-((6-(4,5-dimethyl-1H-imidazol-1-yl)pyridin-3-yl)methylene)hydrazineyl)quinazoline hydrochloride] gave an IC50 of 7.05 µM.
For `C/C(=N\Nc1ncnc2cc(Cl)ccc12)c1ccc(-n2cc(C)nc2C)nc1` [Compound 27, (E)-7-chloro-4-(2-(1-(6-(2,4-dimethyl-1H-imidazol-1-yl)pyridin-3-yl)ethylidene)hydrazineyl)quinazoline hydrochloride], the IC50 was 3.97 µM.
Work on `Clc1ccc2c(N/N=C/c3ccc(-n4ccnc4)cc3)ccnc2c1` [Compound 38, 4-(2-(4-(1H-imidazol-1-yl)benzylidene)hydrazineyl)-7-chloroquinoline dihydrochloride] yielded an IC50 of 4.62 µM.
With `Clc1ccc2c(Nc3ccc(-n4cncn4)nc3)ncnc2c1` [Compound 34, N-(6-(1H-1,2,4-triazol-1-yl)pyridin-3-yl)-7-chloroquinazolin-4-amine phosphoric acid salt] the IC50 was 10.4 µM.
`CC(=NNc1ccnc2cc(Cl)ccc12)c1ccc(-n2cnc(C)c2C)nc1` [Compound 22, 7-chloro-4-(2-(1-(6-(4,5-dimethyl-1H-imidazol-1-yl)pyridin-3-yl)ethylidene)hydrazineyl)quinoline] showed an IC50 of 3.56 µM.
With `Clc1ccc2c(N/N=C/c3ccc(-n4cccn4)cc3)ccnc2c1` [Compound 3, (E)-4-((E)-(4-(1H-pyrazol-1-yl)benzylidene)hydrazono)-7-chloro-1,4-dihydroquinoline] the IC50 was 11.5 µM.
Work on `C/C(=N\Nc1ncnc2cc(Cl)ccc12)c1ccc(-n2cnc(C)c2C)nc1` [Compound 16, 7-chloro-4-(2-(1-(6-(4,5-dimethyl-1H-imidazol-1-yl)pyridin-3-yl)ethylidene)hydrazineyl)quinazoline phosphate] yielded an IC50 of 3.29 µM.
`Fc1cc(/C=N/Nc2ccnc3cc(Cl)ccc23)ccc1-n1ccnc1` [Compound 35, (E)-7-chloro-4-(2-(3-fluoro-4-(1H-imidazol-1-yl)benzylidene)hydrazineyl)quinoline hydrochloride] gave an IC50 of 10.4 µM.
`Clc1ccc2c(N/N=C/c3ccc(-n4ccnc4)nc3)ccnc2c1` [Compound 14, (E)-4-(2-((6-(1H-imidazol-1-yl)pyridin-3-yl)methylene)hydrazineyl)-7-chloroquinoline hydrochloride] gave an IC50 of 6.03 µM.
For `Cc1cc(-n2ccnc2)ccc1/C=N/Nc1ccnc2cc(Cl)ccc12` [Compound 1, (E)-4-((E)-(4-(1H-imidazol-1-yl)-2-methylbenzylidene)hydrazono)-7-chloro-1,4-dihydroquinoline], the IC50 was 2.97 µM.

Source: US20240398783A1, “Compounds and Pharmaceutical Compositions Comprising Inhibitors of Amyloid Peptide Interactions with Glycosaminoglycans, Methods of Treatment and Use Thereof” (Gismo Therapeutics, Inc., priority 2021, published 2024)
